The results in this text go back to ChEMBL document CHEMBL1141668, “Synthesis and biological activity of imidazopyridine anticoccidial agents: Part II” (Eur J Med Chem, 2008).

Broadly, the IC50 is the concentration that gives 50% inhibition.

Chain of cGMP-dependent protein kinase (Q8MMZ8 whole entry): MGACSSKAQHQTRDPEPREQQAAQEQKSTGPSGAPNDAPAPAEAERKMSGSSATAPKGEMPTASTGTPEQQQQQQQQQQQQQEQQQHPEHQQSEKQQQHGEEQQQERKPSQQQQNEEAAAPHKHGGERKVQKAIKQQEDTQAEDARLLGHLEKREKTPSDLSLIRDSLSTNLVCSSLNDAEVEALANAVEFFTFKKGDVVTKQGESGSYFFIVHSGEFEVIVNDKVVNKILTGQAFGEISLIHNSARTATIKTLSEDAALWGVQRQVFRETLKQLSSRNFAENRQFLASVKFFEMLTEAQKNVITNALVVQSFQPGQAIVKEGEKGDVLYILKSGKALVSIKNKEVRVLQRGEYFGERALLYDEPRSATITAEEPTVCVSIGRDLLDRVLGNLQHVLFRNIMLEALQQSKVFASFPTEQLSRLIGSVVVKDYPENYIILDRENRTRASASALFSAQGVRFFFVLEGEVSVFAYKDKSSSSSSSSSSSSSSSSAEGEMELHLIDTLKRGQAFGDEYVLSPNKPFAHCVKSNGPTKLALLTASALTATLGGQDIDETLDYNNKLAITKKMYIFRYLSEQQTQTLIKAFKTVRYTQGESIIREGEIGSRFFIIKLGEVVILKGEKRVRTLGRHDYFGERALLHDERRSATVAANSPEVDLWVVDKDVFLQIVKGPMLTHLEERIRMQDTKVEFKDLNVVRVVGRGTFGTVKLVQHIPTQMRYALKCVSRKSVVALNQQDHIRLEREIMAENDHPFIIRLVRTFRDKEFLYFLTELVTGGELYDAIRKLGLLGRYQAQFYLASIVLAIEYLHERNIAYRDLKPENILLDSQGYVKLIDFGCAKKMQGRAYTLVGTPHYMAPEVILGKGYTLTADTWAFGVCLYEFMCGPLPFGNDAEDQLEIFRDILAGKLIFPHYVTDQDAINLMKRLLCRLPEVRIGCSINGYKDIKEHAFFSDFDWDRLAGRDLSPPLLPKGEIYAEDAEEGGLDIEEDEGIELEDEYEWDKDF

For one experiment, the system named is Eimeria mitis. The experiment in a line: Anticoccidial activity against Eimeria mitis in chickens assessed as reduction of oocysts at 6.25 ppm measured after 8 days by ExMAC assay relative to untreated control. The experiment is classed as functional. On the set-up: scale not given: the % may be the effect or the level left.
With `Nc1nccc(-c2c(-c3ccc(F)cc3)nc3cc(C4CCN(CCO)CC4)ccn23)n1`, the Activity is given as under 50%.
Same read-out and setting: in the case of `CN(C)CCCc1ccn2c(-c3ccnc(N)n3)c(-c3ccc(F)cc3)nc2c1` it was under 50%; in that of `CN(C)CCc1ccn2c(-c3ccnc(N)n3)c(-c3ccc(F)cc3)nc2c1`, under 50%; in that of `CN(C)Cc1ccn2c(-c3ccnc(N)n3)c(-c3ccc(F)cc3)nc2c1`, under 50%.
For `CCN(CC)Cc1ccn2c(-c3ccnc(N)n3)c(-c3ccc(F)cc3)nc2c1`, the Activity amounted to 50%.

A further experiment deals with Eimeria acervulina. Description: Anticoccidial activity against Eimeria acervulina in chickens assessed as reduction of oocysts at 12.5 ppm measured after 8 days by ExMAC assay relative to untreated control. The experiment is classed as functional. On the set-up: scale not given: the % may be the effect or the level left.
On to `Nc1nccc(-c2c(-c3ccc(F)cc3)nc3cc(C4CCN(CCO)CC4)ccn23)n1`, for which the Activity came to 50%.
The same measure, in the same setting: as for `CN(C)CCCc1ccn2c(-c3ccnc(N)n3)c(-c3ccc(F)cc3)nc2c1`, the figure is 80%.
On the same count and under the same terms, in the case of `CN(C)CCc1ccn2c(-c3ccnc(N)n3)c(-c3ccc(F)cc3)nc2c1` it was 100%.
On to `CN(C)Cc1ccn2c(-c3ccnc(N)n3)c(-c3ccc(F)cc3)nc2c1`, for which the Activity is 80%.
As to `CCN(CC)Cc1ccn2c(-c3ccnc(N)n3)c(-c3ccc(F)cc3)nc2c1`, the Activity is given as 50%.
Still for that read-out and setting: as for `CN1CCN(Cc2ccn3c(-c4ccnc(N)n4)c(-c4ccc(F)cc4)nc3c2)CC1`, the figure is under 50%.

The next experiment has as its system Eimeria tenella. The experiment in a line: Anticoccidial activity against Eimeria tenella in chickens assessed as reduction of oocysts at 6.25 ppm measured after 8 days by ExMAC assay relative to untreated control. The experiment is classed as functional. On the set-up: scale not given: the % may be the effect or the level left.
Take `Nc1nccc(-c2c(-c3ccc(F)cc3)nc3cc(C4CCN(CCO)CC4)ccn23)n1`: the Activity came to 99%.
Take `CN(C)CCCc1ccn2c(-c3ccnc(N)n3)c(-c3ccc(F)cc3)nc2c1`: the Activity is under 50%.
`CN(C)CCc1ccn2c(-c3ccnc(N)n3)c(-c3ccc(F)cc3)nc2c1`: the Activity is given as 100%.
For the compound `CN(C)Cc1ccn2c(-c3ccnc(N)n3)c(-c3ccc(F)cc3)nc2c1`, the Activity was 80%.
In the case of `CCN(CC)Cc1ccn2c(-c3ccnc(N)n3)c(-c3ccc(F)cc3)nc2c1`, the Activity was under 50%.

Another experiment deals with Eimeria acervulina. Description: Anticoccidial activity against Eimeria acervulina in chickens assessed as reduction of oocysts at 25 ppm measured after 8 days by ExMAC assay relative to untreated control. The experiment is classed as functional. The arrangement: scale not given: the % may be the effect or the level left.
Consider `Nc1nccc(-c2c(-c3ccc(F)cc3)nc3cc(C4CCN(CCO)CC4)ccn23)n1`, for which the Activity is 99%.
Take `CN(C)CCCc1ccn2c(-c3ccnc(N)n3)c(-c3ccc(F)cc3)nc2c1`: the Activity turned out to be 80%.
Consider `CN(C)CCc1ccn2c(-c3ccnc(N)n3)c(-c3ccc(F)cc3)nc2c1`, for which the Activity came out at 100%.
Same read-out and setting: in the case of `CN(C)Cc1ccn2c(-c3ccnc(N)n3)c(-c3ccc(F)cc3)nc2c1` it was 80%.
For the compound `CCN(CC)Cc1ccn2c(-c3ccnc(N)n3)c(-c3ccc(F)cc3)nc2c1`, the Activity is listed as 50%.
In the case of `CN1CCN(Cc2ccn3c(-c4ccnc(N)n4)c(-c4ccc(F)cc4)nc3c2)CC1`, the Activity is listed as under 50%.

The test system of the next experiment is Eimeria mitis. The experiment in a line: Anticoccidial activity against Eimeria mitis in chickens assessed as reduction of oocysts at 25 ppm measured after 8 days by ExMAC assay relative to untreated control. Format: functional. On the set-up: scale not given: the % may be the effect or the level left.
In the case of `Nc1nccc(-c2c(-c3ccc(F)cc3)nc3cc(C4CCN(CCO)CC4)ccn23)n1`, the Activity is given as under 50%.
As for `CN(C)CCCc1ccn2c(-c3ccnc(N)n3)c(-c3ccc(F)cc3)nc2c1`, the Activity was found to be 80%.
Regarding `CN(C)CCc1ccn2c(-c3ccnc(N)n3)c(-c3ccc(F)cc3)nc2c1`, the Activity worked out at 100%.
Take `CN(C)Cc1ccn2c(-c3ccnc(N)n3)c(-c3ccc(F)cc3)nc2c1`: the Activity came out at 80%.
For the compound `CCN(CC)Cc1ccn2c(-c3ccnc(N)n3)c(-c3ccc(F)cc3)nc2c1`, the Activity turned out to be 80%.
Regarding `CN1CCN(Cc2ccn3c(-c4ccnc(N)n4)c(-c4ccc(F)cc4)nc3c2)CC1`, the Activity was determined as 80%.

Another experiment concerns Eimeria mitis. The experiment in a line: Anticoccidial activity against Eimeria mitis in chickens assessed as reduction of oocysts at 12.5 ppm measured after 8 days by ExMAC assay relative to untreated control. On the set-up: scale not given: the % may be the effect or the level left. Format: functional.
Turning to `Nc1nccc(-c2c(-c3ccc(F)cc3)nc3cc(C4CCN(CCO)CC4)ccn23)n1`, the Activity is reported as 80%.
Take `CN(C)CCCc1ccn2c(-c3ccnc(N)n3)c(-c3ccc(F)cc3)nc2c1`: the Activity is given as under 50%.
In the case of `CN(C)CCc1ccn2c(-c3ccnc(N)n3)c(-c3ccc(F)cc3)nc2c1`, the Activity came to 80%.
On to `CN(C)Cc1ccn2c(-c3ccnc(N)n3)c(-c3ccc(F)cc3)nc2c1`, for which the Activity stood at 80%.
On the same count and under the same terms, as for `CCN(CC)Cc1ccn2c(-c3ccnc(N)n3)c(-c3ccc(F)cc3)nc2c1`, the figure is under 50%.
Consider `CN1CCN(Cc2ccn3c(-c4ccnc(N)n4)c(-c4ccc(F)cc4)nc3c2)CC1`, for which the Activity is on record as under 50%.

The test system of the next experiment is Eimeria maxima. Description: Anticoccidial activity against Eimeria maxima in chickens assessed as reduction of oocysts at 25 ppm measured after 8 days by ExMAC assay relative to untreated control. The experiment is classed as functional. On the set-up: scale not given: the % may be the effect or the level left.
As for `Nc1nccc(-c2c(-c3ccc(F)cc3)nc3cc(C4CCN(CCO)CC4)ccn23)n1`, the Activity worked out at 50%.
Take `CN(C)CCCc1ccn2c(-c3ccnc(N)n3)c(-c3ccc(F)cc3)nc2c1`: the Activity is 100%.
As to `CN(C)CCc1ccn2c(-c3ccnc(N)n3)c(-c3ccc(F)cc3)nc2c1`, the Activity was 100%.
On the same count and under the same terms, in the case of `CN(C)Cc1ccn2c(-c3ccnc(N)n3)c(-c3ccc(F)cc3)nc2c1` it was 80%.
In the case of `CCN(CC)Cc1ccn2c(-c3ccnc(N)n3)c(-c3ccc(F)cc3)nc2c1`, the Activity turned out to be 80%.
On the same count and under the same terms, in the case of `CN1CCN(Cc2ccn3c(-c4ccnc(N)n4)c(-c4ccc(F)cc4)nc3c2)CC1` it was 80%.

For the next experiment, the system named is Eimeria maxima. The experiment in a line: Anticoccidial activity against Eimeria maxima in chickens assessed as reduction of oocysts at 6.25 ppm measured after 8 days by ExMAC assay relative to untreated control. The arrangement: scale not given: the % may be the effect or the level left. Format: functional.
Turning to `Nc1nccc(-c2c(-c3ccc(F)cc3)nc3cc(C4CCN(CCO)CC4)ccn23)n1`, the Activity is listed as under 50%.
As to `CN(C)CCCc1ccn2c(-c3ccnc(N)n3)c(-c3ccc(F)cc3)nc2c1`, the Activity is recorded as under 50%.
Consider `CN(C)CCc1ccn2c(-c3ccnc(N)n3)c(-c3ccc(F)cc3)nc2c1`, for which the Activity stood at 50%.
On to `CN(C)Cc1ccn2c(-c3ccnc(N)n3)c(-c3ccc(F)cc3)nc2c1`, for which the Activity was under 50%.
Consider `CCN(CC)Cc1ccn2c(-c3ccnc(N)n3)c(-c3ccc(F)cc3)nc2c1`, for which the Activity is given as under 50%.

A further experiment concerns the target cGMP-dependent protein kinase (Eimeria tenella, UniProt Q8MMZ8). The experiment in a line: Inhibition of Eimeria tenella cGMP-dependent protein kinase.
`Nc1nccc(-c2c(-c3ccc(F)cc3)nc3cc(C4CCN(CCO)CC4)ccn23)n1` showed an IC50 of 0.044 nM.
As to `CN(C)CCCc1ccn2c(-c3ccnc(N)n3)c(-c3ccc(F)cc3)nc2c1`, the IC50 was 0.27 nM.
`CN(C)CCc1ccn2c(-c3ccnc(N)n3)c(-c3ccc(F)cc3)nc2c1` returned a 50% inhibitory concentration (IC50) of 0.46 nM.
On to `CCN(CC)Cc1ccn2c(-c3ccnc(N)n3)c(-c3ccc(F)cc3)nc2c1`, for which the IC50 is 0.17 nM.
Take `CN1CCN(Cc2ccn3c(-c4ccnc(N)n4)c(-c4ccc(F)cc4)nc3c2)CC1`: 2.2 nM corresponded to half-maximal inhibition (IC50).

In the next experiment the test system is Eimeria acervulina. The experiment in a line: Anticoccidial activity against Eimeria acervulina in chickens assessed as reduction of oocysts at 6.25 ppm measured after 8 days by ExMAC assay relative to untreated control. Format: functional. The arrangement: scale not given: the % may be the effect or the level left.
Consider `Nc1nccc(-c2c(-c3ccc(F)cc3)nc3cc(C4CCN(CCO)CC4)ccn23)n1`, for which the Activity was under 50%.
Turning to `CN(C)CCCc1ccn2c(-c3ccnc(N)n3)c(-c3ccc(F)cc3)nc2c1`, the Activity was under 50%.
Consider `CN(C)CCc1ccn2c(-c3ccnc(N)n3)c(-c3ccc(F)cc3)nc2c1`, for which the Activity came to 80%.
With `CN(C)Cc1ccn2c(-c3ccnc(N)n3)c(-c3ccc(F)cc3)nc2c1`, the Activity was 80%.
The same measure, in the same setting: as for `CCN(CC)Cc1ccn2c(-c3ccnc(N)n3)c(-c3ccc(F)cc3)nc2c1`, the figure is under 50%.

The subject of the next experiment is Eimeria maxima. Description: Anticoccidial activity against Eimeria maxima in chickens assessed as reduction of oocysts at 12.5 ppm measured after 8 days by ExMAC assay relative to untreated control. Format: functional. The arrangement: scale not given: the % may be the effect or the level left.
With `Nc1nccc(-c2c(-c3ccc(F)cc3)nc3cc(C4CCN(CCO)CC4)ccn23)n1`, the Activity is listed as 80%.
Still for that read-out and setting: in the case of `CN(C)CCCc1ccn2c(-c3ccnc(N)n3)c(-c3ccc(F)cc3)nc2c1` it was under 50%.
Turning to `CN(C)CCc1ccn2c(-c3ccnc(N)n3)c(-c3ccc(F)cc3)nc2c1`, the Activity is 100%.
Same read-out and setting: as for `CN(C)Cc1ccn2c(-c3ccnc(N)n3)c(-c3ccc(F)cc3)nc2c1`, the figure is 80%; as for `CCN(CC)Cc1ccn2c(-c3ccnc(N)n3)c(-c3ccc(F)cc3)nc2c1`, 80%.
Consider `CN1CCN(Cc2ccn3c(-c4ccnc(N)n4)c(-c4ccc(F)cc4)nc3c2)CC1`, for which the Activity was under 50%.

The subject of a further experiment is Eimeria tenella. Description: Anticoccidial activity against Eimeria tenella in chickens assessed as reduction of oocysts at 12.5 ppm measured after 8 days by ExMAC assay relative to untreated control. Format: functional. On the set-up: scale not given: the % may be the effect or the level left.
For the compound `Nc1nccc(-c2c(-c3ccc(F)cc3)nc3cc(C4CCN(CCO)CC4)ccn23)n1`, the Activity is on record as 99%.
Regarding `CN(C)CCCc1ccn2c(-c3ccnc(N)n3)c(-c3ccc(F)cc3)nc2c1`, the Activity was determined as 80%.
On to `CN(C)CCc1ccn2c(-c3ccnc(N)n3)c(-c3ccc(F)cc3)nc2c1`, for which the Activity was 100%.
For `CN(C)Cc1ccn2c(-c3ccnc(N)n3)c(-c3ccc(F)cc3)nc2c1`, the Activity was found to be 80%.
`CCN(CC)Cc1ccn2c(-c3ccnc(N)n3)c(-c3ccc(F)cc3)nc2c1`: the Activity amounted to 80%.
For `CN1CCN(Cc2ccn3c(-c4ccnc(N)n4)c(-c4ccc(F)cc4)nc3c2)CC1`, the Activity is on record as under 50%.

A further experiment relates to Eimeria tenella. Description: Anticoccidial activity against Eimeria tenella in chickens assessed as reduction of oocysts at 25 ppm measured after 8 days by ExMAC assay relative to untreated control. On the set-up: scale not given: the % may be the effect or the level left. Format: functional.
Regarding `Nc1nccc(-c2c(-c3ccc(F)cc3)nc3cc(C4CCN(CCO)CC4)ccn23)n1`, the Activity stood at 99%.
Turning to `CN(C)CCCc1ccn2c(-c3ccnc(N)n3)c(-c3ccc(F)cc3)nc2c1`, the Activity is 80%.
On the same count and under the same terms, in the case of `CN(C)CCc1ccn2c(-c3ccnc(N)n3)c(-c3ccc(F)cc3)nc2c1` it was 100%; in that of `CN(C)Cc1ccn2c(-c3ccnc(N)n3)c(-c3ccc(F)cc3)nc2c1`, 80%.
Same read-out and setting: as for `CCN(CC)Cc1ccn2c(-c3ccnc(N)n3)c(-c3ccc(F)cc3)nc2c1`, the figure is 80%; as for `CN1CCN(Cc2ccn3c(-c4ccnc(N)n4)c(-c4ccc(F)cc4)nc3c2)CC1`, 80%.
